The subject of data set [1] is wild-type HIV-IIIB strain. Briefly: Antiviral analysis EGFP: anti-HIV activity in MT4 LTR-EGFP cells. It is filed as cell-based, HIV-1. To be noted: Human immunodeficiency virus 1, 72 h, fluorescence of HIV-infected cells reduced by 50%, three days after infection. The method in brief:
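MT4 T-cells carrying an HIV-1 LTR-driven EGFP reporter were infected with HIV-IIIB; fluorescence was measured by scanning microscope image analysis three days post-infection. EC50 (μM) is the concentration cutting infected-cell fluorescence by 50%; CC50 is the same on mock-infected cells.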

Data set [2] can be described thus: Cytotoxicity in mock-infected MT4 CMV-EGFP cells. In kind it is cell-based, human. To be noted: human, fluorescence reduced by 50%.

A word on the EC50: it is the concentration needed to bring the measured effect to its halfway point. Low readings indicate higher potency in that assay, high ones lower potency in that assay. As a reminder, the CC50 is the concentration that lowers cell viability or growth by half. Low values mean harm at low concentration, high ones better tolerance by the cells.

In data set [1], `COc1ccc2cc(C#N)c(=O)n(-c3ccc([N+](=O)[O-])cc3)c2c1` [compound 9] came in with an EC50 of 2.48 µM. For the same compound, the CC50 at 3 days in data set [2] is more than 32 µM.

In the case of `N#Cc1cc2ccc(-n3ccnc3)cc2n(-c2ccc([N+](=O)[O-])cc2)c1=O` [compound 27], the EC50 in data set [1] was determined as 1.13 µM. Also, in data set [2], the CC50 at 3 days was more than 100 µM.

As for `N#Cc1cc2ccc(-c3ccccc3)cc2n(-c2ccc([N+](=O)[O-])cc2)c1=O` [compound 28], the EC50 in data set [1] turned out to be 1.34 µM. The CC50 at 3 days in data set [2] is more than 32 µM.

In data set [1], `N#Cc1cc2ccc(-n3cccc3)cc2n(-c2ccc([N+](=O)[O-])cc2)c1=O` [compound 25] came in with an EC50 of 0.95 µM. The compound also came in with a CC50 at 3 days in data set [2] of 97.2 µM.

For the compound `Cc1ccc(-n2c(=O)c(C#N)cc3ccc(NCCCN4CCCC4)cc32)cc1C#N` [compound 157], a half-maximal response in data set [1] (EC50) required 0.89 µM. In addition, the CC50 at 3 days in data set [2] came to 52.7 µM.

With `Cc1ccc(-n2c(=O)c(C#N)cc3ccc(OCCCN4CCCC4)cc32)cc1C#N` [compound 148], the response in data set [1] was half-maximal at 0.64 µM (EC50). In addition, in data set [2], it took 51.5 µM to reach half-maximal cytotoxicity (CC50 at 3 days).

`N#Cc1cc2ccc(-n3cnnc3)cc2n(-c2ccc([N+](=O)[O-])cc2)c1=O` [compound 26] yielded an EC50 in data set [1] of 80.9 µM. In data set [2], this compound returned a CC50 at 3 days of more than 100 µM.

In data set [1], `N#Cc1cc2ccc(=O)[nH]c2n(-c2ccc([N+](=O)[O-])cc2)c1=O` [compound 100] showed an EC50 of more than 32 µM. Moreover, the CC50 at 3 days in data set [2] is more than 32 µM.

Turning to `Cc1ccc(-n2c(=O)c(C#N)cc3ccc(-c4cccc(CNC(=O)CN(C)C)c4)cc32)cc1C#N` [compound 158], in data set [1], it took 0.21 µM to reach a half-maximal effect (EC50). The compound also registered a CC50 at 3 days in data set [2] of 11.5 µM.

In data set [1], `N#Cc1cc2ccc(O)cc2n(-c2ccc([N+](=O)[O-])cc2)c1=O` [compound 10] registered an EC50 of 13.3 µM. In data set [2], this compound showed a CC50 at 3 days of more than 32 µM.

For the compound `Cc1ccc(-n2c(=O)c(C#N)cc3ccc(OCCCN(C)C)cc32)cc1C#N` [compound 147], in data set [1], the EC50 turned out to be 0.85 µM. Half-maximal cytotoxicity in data set [2] (CC50 at 3 days) was put at 83.9 µM.

In data set [1], `N#Cc1c(N)c2ccc(Br)cc2n(-c2ccc([N+](=O)[O-])cc2)c1=O` [compound 118] displayed an EC50 of 0.72 µM. In addition, the CC50 at 3 days in data set [2] was more than 32 µM.

Consider `N#Cc1cc2ccc(OCCNCCO)cc2n(-c2ccc([N+](=O)[O-])cc2)c1=O` [compound 71], for which the EC50 in data set [1] was more than 32 µM. In addition, the CC50 at 3 days in data set [2] was more than 32 µM.

`COc1ccc2c(N)c(C#N)c(=O)n(-c3ccc(C)c(C#N)c3)c2c1` [compound 145]: in data set [1], the EC50 was found to be 3.01 µM. In data set [2], this compound returned a CC50 at 3 days of more than 100 µM.

Turning to `N#Cc1c(N)c2ccc(Cl)cc2n(-c2ccc(Cl)nc2)c1=O` [compound 103], the EC50 in data set [1] came to 3.61 µM. This compound yielded a CC50 at 3 days in data set [2] of 85.2 µM.

As for `N#Cc1cc2ccc(N)cc2n(-c2ccc([N+](=O)[O-])cc2)c1=O` [compound 24], in data set [1], the EC50 came to 1.48 µM. Also, the CC50 at 3 days in data set [2] is more than 32 µM.

Compound `N#Cc1cc2cccnc2n(-c2ccc([N+](=O)[O-])cc2)c1=O` [compound 99] yielded an EC50 in data set [1] of 19.3 µM. In data set [2], this compound gave a cytotoxic concentration (CC50) at 3 days of more than 32 µM.

In data set [1], `Cc1ccc(-n2c(=O)c(C#N)c(N)c3ccc(-c4ccccn4)cc32)cc1C#N` [compound 123] displayed an EC50 of more than 100 µM. In data set [2], the CC50 at 3 days is more than 100 µM.

In data set [1], `COc1cc2cc(C#N)c(=O)n(-c3ccc([N+](=O)[O-])cc3)c2cc1OC` [compound 93] displayed an EC50 of 7.01 µM. In data set [2], this compound gave a CC50 at 3 days of more than 32 µM.

For `Cc1c(C#N)c(=O)n(-c2ccc([N+](=O)[O-])cc2)c2ccccc12` [compound 7], the EC50 in data set [1] was 9.34 µM. Further, the CC50 at 3 days in data set [2] is more than 100 µM.

In data set [1], `N#Cc1c(N)c2ccccc2n(-c2ccc([N+](=O)[O-])cc2)c1=O` [compound 101] returned an EC50 of more than 32 µM. The compound also came in with a CC50 at 3 days in data set [2] of more than 32 µM.

Regarding `COc1ccc2c(c1)cc(C#N)c(=O)n2-c1ccc([N+](=O)[O-])cc1` [compound 83], the EC50 in data set [1] is more than 32 µM. The compound also had a CC50 at 3 days in data set [2] of more than 32 µM.

`Cc1ccc(-n2c(=O)c(C#N)cc3ccc(Br)cc32)cc1C#N` [compound 149] returned an EC50 in data set [1] of 2.74 µM. The compound also displayed a CC50 at 3 days in data set [2] of more than 100 µM.

In data set [1], `COc1ccc2cc(C#N)c(=O)n(-c3ccc(C)c(C#N)c3)c2c1` [compound 146] registered an EC50 of 4.67 µM. For the same compound, in data set [2], the CC50 at 3 days was more than 100 µM.

For the compound `Cc1ccc(-n2c(=O)c(C#N)cc3ccccc32)cc1C#N` [compound 163], the EC50 in data set [1] came to 9.25 µM. For the same compound, the CC50 at 3 days in data set [2] is more than 100 µM.

`Cc1ccc(-n2c(=O)c(C#N)c(N)c3ccc(Br)cc32)cc1C#N` [compound 121] came in with an EC50 in data set [1] of 0.75 µM. In data set [2], this compound yielded a CC50 at 3 days of 55.2 µM.

The compound `N#Cc1cc2cc(O)c(O)cc2n(-c2ccc([N+](=O)[O-])cc2)c1=O` [compound 94] displayed an EC50 in data set [1] of more than 32 µM. The compound also showed a CC50 at 3 days in data set [2] of more than 32 µM.

The compound `N#Cc1cc2ccc(OP(=O)(O)O)cc2n(-c2ccc([N+](=O)[O-])cc2)c1=O` [compound 70] registered an EC50 in data set [1] of 17.5 µM. This compound came in with a CC50 at 3 days in data set [2] of more than 32 µM.

With `Cc1ccc(-n2c(=O)c(C#N)cc3ccc(-c4ccccn4)cc32)cc1C#N` [compound 159], in data set [1], the midpoint of the response, the EC50, lay at 1.74 µM. Besides, the CC50 at 3 days in data set [2] worked out at 86 µM.

`N#Cc1c(N)c2ccc(-c3cccs3)cc2n(-c2ccc([N+](=O)[O-])cc2)c1=O` [compound 119] yielded a concentration giving a half-maximal response (EC50) in data set [1] of 0.52 µM. In data set [2], this compound showed a CC50 at 3 days of more than 100 µM.

Compound `Cc1ccc(-n2c(=O)c(C#N)c(NCCN)c3ccccc32)cc1C#N` [compound 164] returned an EC50 in data set [1] of 0.63 µM. The CC50 at 3 days in data set [2] amounted to 12.9 µM.

As for `N#Cc1cc2ccccc2n(-c2ccc([N+](=O)[O-])cc2)c1=O` [compound 1], in data set [1], the EC50 came out at 2.89 µM. In addition, in data set [2], the CC50 at 3 days was more than 100 µM.
